Key:
[1] = target: Bromodomain-containing protein 4 (Homo sapiens, UniProt O60885); assay: Inhibition of N-terminal His6-tagged recombinant human BRD4 (44 to 168 residues) expressed in Escherichia coli BL21 (DE3) incubated for 60 mins by TR-FRET assay
[2] = Inhibition of c-MYC expression in human JJN-3R cells measured after 4 hrs; type: functional, cell-based
[3] = Antiproliferative activity against human JJN-3R cells assessed as inhibition of cell proliferation measured after 72 hrs by MTS assay; type: functional, cell-based
[4] = Metabolic stability in alamethicin treated human liver microsomes assessed as half life pretreated for 5 mins followed by NADPH addition and measured up to 45 mins by LC-MS/MS analysis; type: ADME, Microsome; conditions: time < 50 min
[5] = Metabolic stability in alamethicin treated Sprague-Dawley rat liver microsomes assessed as half life pretreated for 5 mins followed by NADPH addition and measured up to 45 mins by LC-MS/MS analysis; type: ADME, Microsome; conditions: time < 50 min
[6] = Metabolic stability in alamethicin treated CD-1 mouse liver microsomes assessed as half life pretreated for 5 mins followed by NADPH addition and measured up to 45 mins by LC-MS/MS analysis; type: ADME, Microsome; conditions: time < 50 min
[7] = Metabolic stability in alamethicin treated Beagle dog liver microsomes assessed as half life pretreated for 5 mins followed by NADPH addition and measured up to 45 mins by LC-MS/MS analysis; type: ADME, Canis lupus familiaris, Microsome; conditions: time < 50 min
[8] = Metabolic stability in alamethicin treated cynomologus monkey liver microsomes assessed as half life pretreated for 5 mins followed by NADPH addition and measured up to 45 mins by LC-MS/MS analysis; type: ADME, Macaca fascicularis, Microsome; conditions: cynomolgus monkey, time < 50 min
[9] = Metabolic stability in alamethicin treated human liver microsomes assessed as half life pretreated for 5 mins followed by UDPGA addition and measured up to 45 mins by LC-MS/MS analysis; type: ADME, Microsome; conditions: time < 50 min
[10] = Metabolic stability in alamethicin treated Sprague-Dawley rat liver microsomes assessed as half life pretreated for 5 mins followed by UDPGA addition and measured up to 45 mins by LC-MS/MS analysis; type: ADME, Microsome; conditions: time < 50 min
[11] = Metabolic stability in alamethicin treated CD-1 mouse liver microsomes assessed as half life pretreated for 5 mins followed by UDPGA addition and measured up to 45 mins by LC-MS/MS analysis; type: ADME, Microsome; conditions: time < 50 min
[12] = Metabolic stability in alamethicin treated Beagle dog liver microsomes assessed as half life pretreated for 5 mins followed by UDPGA addition and measured up to 45 mins by LC-MS/MS analysis; type: ADME, Canis lupus familiaris, Microsome; conditions: Beagle, liver microsomes, time < 50 min
[13] = Metabolic stability in alamethicin treated cynomologus monkey liver microsomes assessed as half life pretreated for 5 mins followed by UDPGA addition and measured up to 45 mins by LC-MS/MS analysis; type: ADME, Macaca fascicularis, Microsome; conditions: cynomolgus monkey, time < 50 min
[14] = Efflux ratio of apparent permeability across […] in human Caco-2 cells after 2 hrs by liquid scintillation counting analysis; type: ADME, cell-based; conditions: caco-2, 2 h
[15] = Drug metabolism in human hepatocytes assessed as glucuronidation of the compound at 5 uM measured after 1 hr by LC/UV/MS analysis; type: ADME, cell-based, Hepatocyte
[16] = Drug metabolism in human hepatocytes assessed as oxidative metabolite formation at 5 uM measured after 1 hr by LC/UV/MS analysis; type: ADME, cell-based, Hepatocyte
[17] = Volume of distribution in mouse at 5 mg/kg, po or 1.75 mg/kg, iv; type: ADME, organism-based; conditions: in vivo
[18] = Half life in mouse at 1.75 mg/kg, iv; type: ADME, organism-based; conditions: in vivo
[19] = AUC in mouse at 5 mg/kg, po; type: ADME, organism-based; design: dose 5 mg/kg, route po; conditions: in vivo
[20] = Volume of distribution in rat at 5 mg/kg, po or 1 mg/kg, iv; type: ADME, organism-based; conditions: in vivo
[21] = AUC in rat at 5 mg/kg, po; type: ADME, organism-based; design: dose 5 mg/kg, route po; conditions: in vivo
[22] = Volume of distribution in dog at 0.3 mg/kg, po or 0.1 mg/kg, iv; type: ADME, organism-based, Canis lupus familiaris; conditions: in vivo
[23] = Oral bioavailability in dog at 0.3 mg/kg; type: ADME, organism-based, Canis lupus familiaris; conditions: in vivo
[24] = AUC in dog at 0.3 mg/kg, po; type: ADME, organism-based, Canis lupus familiaris; design: dose 0.3 mg/kg, route po; conditions: in vivo
[25] = Volume of distribution in cynomologus monkey at 0.3 mg/kg, po or 0.1 mg/kg, iv; type: ADME, organism-based, Macaca fascicularis; conditions: cynomolgus monkey, in vivo
[26] = Half life in cynomologus monkey at 0.1 mg/kg, iv; type: ADME, organism-based, Macaca fascicularis; conditions: cynomolgus monkey, in vivo
[27] = Oral bioavailability in cynomologus monkey at 0.3 mg/kg; type: ADME, organism-based, Macaca fascicularis; conditions: cynomolgus monkey, in vivo
[28] = AUC in cynomologus monkey at 0.3 mg/kg, po; type: ADME, organism-based, Macaca fascicularis; design: dose 0.3 mg/kg, route po; conditions: cynomolgus monkey, in vivo
[29] = Antitumor activity against human BR1077F cells xenografted in mouse assessed as tumor growth inhibition at 3 mg/kg, po QD treated as 5 days on and 2 days off regimen for 2 weeks starting from 26 days post tumor implantation; type: functional; conditions: 336 h, read-out: TGI
[30] = AUC in mouse xenografted with human BR1077F cells at 3 mg/kg, po QD treated as 5 days on and 2 days off regimen for 2 weeks starting from 26 days post tumor implantation; type: ADME, organism-based; design: time 2 weeks, dose 3 mg/kg, route po; conditions: in vivo

| IC50 [1] [nM] | IC50 [2] [nM] | half-life [4] [min] | half-life [5] [min] | half-life [6] [min] | half-life [7] [min] | half-life [8] [min] | half-life [9] [min] | half-life [10] [min] | half-life [11] [min] | half-life [12] [min] | half-life [13] [min] | Ratio [14] | Structure (SMILES) | IC50 [3] [nM] | other results |
| --- | --- | --- | --- | --- | --- | --- | --- | --- | --- | --- | --- | --- | --- | --- | --- |
| 3 | 1.5 | 40 | 49 | 58 | 42 | 49 | 120 | 51 | 120 | 120 | 120 | 1.1 | Cc1nnn(C)c1-c1cnc2c3ccc(C(C)(O)C(F)(F)F)c(F)c3n([C@H](c3ccccc3)C3CCOCC3)c2c1 (some centres undefined) | 9 | – |
| 0.9 | 1.2 | 41 | 44 | 10 | 11 | 12 | – | – | – | – | – | 7.3 | Cc1nnn(C)c1-c1cnc2c3ccc(S(C)(=O)=O)cc3n([C@H](c3ccccc3)C3CCOCC3)c2c1 | 5 | – |
| 1.1 | 1.2 | 56 | 35 | 25 | 35 | 30 | 120 | 6 | 120 | 120 | 120 | 1.2 | [2H]C([2H])([2H])c1nnn(C)c1-c1cnc2c3ccc(C(C)(C)O)c(Cl)c3n([C@H](c3ccccc3)C3CCOCC3)c2c1 | 7 | – |
| 0.8 | 1 | 9 | 13 | 5 | 9 | 1 | – | – | 120 | – | – | 1.3 | COc1cc2c3ncc(-c4c(C)nnn4C)cc3n([C@H](c3ccccc3)C3CCOCC3)c2cc1C(C)(C)O | 4 | – |
| 2.2 | 2 | 38 | 39 | 34 | 33 | 45 | 110 | 120 | 120 | 120 | 120 | 1.4 | [2H]C([2H])([2H])c1nnn(C)c1-c1cnc2c3cc(Cl)c(C(C)(C)O)cc3n([C@H](c3ccccc3)C3CCOCC3)c2c1 | 3 | – |
| 1 | 1 | 23 | 35 | 28 | 73 | 11 | 98 | 120 | 120 | 120 | 120 | > 35 | [2H]C([2H])([2H])c1nnn(C)c1-c1cnc2c3c(OC)cc(C(C)(C)O)cc3n([C@H](c3ccccc3)C3CCOCC3)c2c1 | 5 | – |
| – | 0.7 | 33 | 36 | 24 | 20 | 10 | 115 | 61 | 120 | 120 | 120 | 2.6 | Cc1nnn(C)c1-c1cnc2c3ccc(C(C)(C)O)cc3n([C@H](c3ccccc3)C3CCOCC3)c2c1 [EZOBRESIB] | 3.6 | Drug metabolism [15]: Metabolite_Detected; Drug metabolism [16]: Metabolite_Detected; Vd [17]: 1.9 L/kg; half-life [18]: 114 min; AUC [19]: 18 µM·h; Vd [20]: 4.3 L/kg; AUC [21]: 2 µM·h; Vd [22]: 5.3 L/kg; bioavailability [23]: 59%; AUC [24]: 0.41 µM·h; Vd [25]: 4.2 L/kg; half-life [26]: 120 min; bioavailability [27]: 16%; AUC [28]: 0.085 µM·h; inhibition in vivo at 3 mg/kg [29]: 99%; AUC at 336 h [30]: 2.6 µM·h |

From ChEMBL document CHEMBL5120938, “Development of BET Inhibitors as Potential Treatments for Cancer: Optimization of Pharmacokinetic Properties” (ACS Med Chem Lett, 2022)
